Converted amounts (≈) assume the structure as drawn.
Tested on: A. baumannii strain ATCC19606
Test: Minimum inhibitory concentration (MIC) determination, microbroth dilution (CLSI)
Format: cell-based
Conditions: Acinetobacter baumannii; A. baumannii ATCC19606; CAMHB; read after 20 hours; >=80% growth inhibition; read-out: ATCC19606 MIC
Procedure, shortened: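 CLSI broth microdilution in cation-adjusted Mueller Hinton broth with twofold compound dilutions and ~5×10^5 CFU/ml inoculum, incubated at 35±2 °C. MIC read after 20 h as lowest concentration inhibiting ≥80% of growth, by eye and OD 600 nm.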

MIC [µg/mL]	Structure (SMILES)
16 (≈ 19.4 µM)	CN1C(=O)[C@H](CCCCN)NC(=O)[C@H](Cc2ccc3ccccc3c2)NCc2cccnc2Sc2c(Cl)cc(Cl)cc2CNC(=O)[C@@H]1Cc1c[nH]c2ccccc12 [Example 108, (11S,14S,17S)-14-(4-Amino-butyl)-23,25-dichloro-17-(1H-indol-3-ylmethyl)-16-methyl-11-naphthalen-2-ylmethyl-2-thia-4,10,13,16,19-pentaaza-tricyclo[19.4.0.0*3,8*]pentacosa-1(25),3,5,7,21,23-hexaene-12,15,18-trione]
2 (≈ 2.51 µM)	CN1C(=O)[C@H](CCCCN)NC(=O)[C@H](CCCN)NCc2cccnc2Sc2c(Cl)cc(-c3ccc(N)nc3)cc2CNC(=O)[C@@H]1Cc1c[nH]c2ccccc12 [Example 109, (11S,14S,17S)-14-(4-Amino-butyl)-11-(3-amino-propyl)-23-(6-amino-pyridin-3-yl)-25-chloro-17-(1H-indol-3-ylmethyl)-16-methyl-2-thia-4,10,13,16,19-pentaaza-tricyclo[19.4.0.0*3,8*]pentacosa-1(25),3(8),4,6,21,23-hexaene-12,15,18-trione]
0.5 (≈ 0.675 µM)	CN1C(=O)[C@H](CCCCN)NC(=O)[C@H](CCCN)NCc2nccnc2Sc2c(Cl)ccc(Cl)c2CNC(=O)[C@@H]1Cc1c[nH]c2ccccc12 [Example 110, (11S,14S,17S)-14-(4-Amino-butyl)-11-(3-amino-propyl)-22,25-dichloro-17-(1H-indol-3-ylmethyl)-16-methyl-2-thia-4,7,10,13,16,19-hexaaza-tricyclo[19.4.0.0*3,8*]pentacosa-1(25),3,5,7,21,23-hexaene-12,15,18-trione]
1 (≈ 1.29 µM)	CN1C(=O)[C@H](CCCCN)NC(=O)[C@H](CCCN)NCc2ncccc2Sc2c(Cl)ccc(C(F)(F)F)c2CNC(=O)[C@@H]1Cc1c[nH]c2ccccc12 [Example 111, (11S,14S,17S)-14-(4-Amino-butyl)-11-(3-amino-propyl)-25-chloro-17-(1H-indol-3-ylmethyl)-16-methyl-22-trifluoromethyl-2-thia-7,10,13,16,19-pentaaza-tricyclo[19.4.0.0*3,8*]pentacosa-1(25),3(8),4,6,21,23-hexaene-12,15,18-trione]
0.5 (≈ 0.647 µM)	CN1C(=O)[C@H](CCCCN)NC(=O)[C@H](CCCN)NCc2ncccc2Sc2c(Cl)cc(C(F)(F)F)cc2CNC(=O)[C@@H]1Cc1c[nH]c2ccccc12 [Example 112, (11S,14S,17S)-14-(4-Amino-butyl)-11-(3-amino-propyl)-25-chloro-17-(1H-indol-3-ylmethyl)-16-methyl-23-trifluoromethyl-2-thia-7,10,13,16,19-pentaaza-tricyclo[19.4.0.0*3,8*]pentacosa-1(25),3,5,7,21,23-hexaene-12,15,18-trione]
2 (≈ 2.84 µM)	CN1C(=O)[C@H](CCCCN)NC(=O)[C@H](CCCN)NCc2ccccc2Sc2c(ccnc2Cl)CNC(=O)[C@@H]1Cc1c[nH]c2ccccc12 [Example 113, (12S,15S,18S)-15-(4-Amino-butyl)-18-(3-amino-propyl)-4-chloro-12-(1H-indol-3-ylmethyl)-13-methyl-2-thia-5,10,13,16,19-pentaaza-tricyclo[19.4.0.0*3,8*]pentacosa-1(25),3,5,7,21,23-hexaene-11,14,17-trione]
32 (≈ 38.9 µM)	CN1C(=O)[C@H](CCCCN)NC(=O)[C@H](Cc2cccc3ccccc23)NCc2cccnc2Sc2c(Cl)cc(Cl)cc2CNC(=O)[C@@H]1Cc1c[nH]c2ccccc12 [Example 114, (11S,14S,17S)-14-(4-Amino-butyl)-23,25-dichloro-17-(1H-indol-3-ylmethyl)-16-methyl-11-naphthalen-1-ylmethyl-2-2-thia-4,10,13,16,19-pentaaza-tricyclo[19.4.0.0*3,8*]pentacosa-1(25),3,5,7,21,23-hexaene-12,15,18-trione]
2 (≈ 2.27 µM)	CN1CCN(c2cc(-c3cc(Cl)c4c(c3)CNC(=O)[C@H](Cc3c[nH]c5ccccc35)N(C)C(=O)[C@H](CCCCN)NC(=O)[C@H](CCCN)NCc3cccnc3S4)ccn2)CC1 [Example 115, (11S,14S,17S)-14-(4-Amino-butyl)-11-(3-amino-propyl)-25-chloro-17-(1H-indol-3-ylmethyl)-16-methyl-23-[2-(4-methyl-piperazin-1-yl)-pyridin-4-yl]-2-thia-4,10,13,16,19-pentaaza-tricyclo[19.4.0.0*3,8*]pentacosa-1(25),3,5,7,21,23-hexaene-12,15,18-trione]
8 (≈ 10.7 µM)	CN1C(=O)[C@H](CCCCN)NC(=O)[C@H](CCCN)NCc2cccnc2Sc2c(Cl)cc(B(O)O)cc2CNC(=O)[C@@H]1Cc1c[nH]c2ccccc12 [Example 116, {(7S,10S,13S)-10-(4-aminobutyl)-7-(3-aminopropyl)-20-chloro-13-[(1H-indol-3-yl)methyl]-12-methyl-8,11,14-trioxo-5,6,7,8,9,10,11,12,13,14,15,16-dodecahydropyrido[2,3-b][1,5,8,11,14]benzothiatetraazacycloheptadecin-18-yl}boronic acid]
0.5 (≈ 0.633 µM)	CN1C(=O)[C@H](CCCCN)NC(=O)[C@H](COCCN)NCc2cccnc2Sc2c(Cl)ccc(C(F)(F)F)c2CNC(=O)[C@@H]1Cc1c[nH]c2ccccc12 [Example 118, (11S,14S,17S)-14-(4-Amino-butyl)-11-(2-amino-ethoxymethyl)-25-chloro-17-(1H-indol-3-ylmethyl)-16-methyl-22-trifluoromethyl-2-thia-4,10,13,16,19-pentaaza-tricyclo[19.4.0.0*3,8*]pentacosa-1(25),3,5,7,21,23-hexaene-12,15,18-trione]
4 (≈ 5.05 µM)	CN1C(=O)[C@H](COCCN)NC(=O)[C@H](COCCN)NCc2cccnc2Sc2c(Cl)ccc(C(F)(F)F)c2CNC(=O)[C@@H]1Cc1c[nH]c2ccccc12 [Example 119, (11S,14S,17S)-11,14-Bis-(2-amino-ethoxymethyl)-25-chloro-17-(1H-indol-3-ylmethyl)-16-methyl-22-trifluoromethyl-2-thia-4,10,13,16,19-pentaaza-tricyclo[19.4.0.0*3,8*]pentacosa-1(25),3,5,7,21,23-hexaene-12,15,18-trione]
0.5 (≈ 0.645 µM)	CN1C(=O)[C@H](COCCN)NC(=O)[C@H](CCCN)NCc2cccnc2Sc2c(Cl)ccc(C(F)(F)F)c2CNC(=O)[C@@H]1Cc1c[nH]c2ccccc12 [Example 120, (11S,14S,17S)-14-(2-Amino-ethoxymethyl)-11-(3-amino-propyl)-25-chloro-17-(1H-indol-3-ylmethyl)-16-methyl-22-trifluoromethyl-2-thia-4,10,13,16,19-pentaaza-tricyclo[19.4.0.0*3,8*]pentacosa-1(25),3,5,7,21,23-hexaene-12,15,18-trione]
2 (≈ 2.65 µM)	CN1C(=O)[C@H](CCCCN)NC(=O)[C@H](CCC(N)=O)NCc2cccnc2Sc2c(Cl)ccc(Cl)c2CNC(=O)[C@@H]1Cc1c[nH]c2ccccc12 [Example 121, 3-[(11S,14S,17S)-14-(4-Amino-butyl)-22,25-dichloro-17-(1H-indol-3-ylmethyl)-16-methyl-12,15,18-trioxo-2-thia-4,10,13,16,19-pentaaza-tricyclo[19.4.0.0*3,8*]pentacosa-1(25),3,5,7,21,23-hexaen-11-yl]-propionamide]
1 (≈ 1.29 µM)	CN1C(=O)[C@H](CCCCN)NC(=O)[C@H](CCCN)NCc2ccncc2Sc2c(Cl)ccc(C(F)(F)F)c2CNC(=O)[C@@H]1Cc1c[nH]c2ccccc12 [Example 122, (11S,14S,17S)-14-(4-Amino-butyl)-11-(3-amino-propyl)-25-chloro-17-(1H-indol-3-ylmethyl)-16-methyl-22-trifluoromethyl-2-thia-5,10,13,16,19-pentaaza-tricyclo[19.4.0.0*3,8*]pentacosa-1(25),3,5,7,21,23-hexaene-12,15,18-trione]
1 (≈ 1.29 µM)	CN1C(=O)[C@H](CCCCN)NC(=O)[C@H](CCCN)NCc2ccncc2Sc2c(Cl)cc(C(F)(F)F)cc2CNC(=O)[C@@H]1Cc1c[nH]c2ccccc12 [Example 123, (11S,14S,17S)-14-(4-Amino-butyl)-11-(3-amino-propyl)-25-chloro-17-(1H-indol-3-ylmethyl)-16-methyl-23-trifluoromethyl-2-thia-5,10,13,16,19-pentaaza-tricyclo[19.4.0.0*3,8*]pentacosa-1(25),3,5,7,21,23-hexaene-12,15,18-trione]
16 (≈ 21.6 µM)	CN1C(=O)[C@H](CCCCN)NC(=O)[C@H](CC(N)=O)NCc2cccnc2Sc2c(Cl)cc(Cl)cc2CNC(=O)[C@@H]1Cc1c[nH]c2ccccc12 [Example 127, 2-[(11S,14S,17S)-14-(4-Amino-butyl)-23,25-dichloro-17-(1H-indol-3-ylmethyl)-16-methyl-12,15,18-trioxo-2-thia-4,10,13,16,19-pentaaza-tricyclo[19.4.0.0*3,8*]pentacosa-1(25),3(8),4,6,21,23-hexaen-11-yl]-acetamide]
2 (≈ 2.46 µM)	CN1C(=O)[C@H](CCCCN)NC(=O)[C@H](CCCN)NCc2ccccc2Sc2c(cc(-c3ccccc3)cc2C(F)(F)F)CNC(=O)[C@@H]1Cc1c[nH]c2ccccc12 [Example 128, (12S,15,18S)-15-(4-Amino-butyl))-18-(3-amino-propyl)-12-(1H-indo-3-ylmethyl)-13-methyl-6-phenyl-4-trifluoromethyl-2-thia-10,13,16,19-tetraaza-tricyclo[19.4.0.0*3,8*]pentacosa-1(25),3,5,7,21,23-hexaene-11,14,17-trione]
0.25 (≈ 0.32 µM)	CN1C(=O)[C@H](CCCCN)NC(=O)[C@H](CCCN)NCc2cccnc2Sc2c(Cl)ccc(-c3ccccc3)c2CNC(=O)[C@@H]1Cc1c[nH]c2ccccc12 [Example 129, (11S,14S,17S)-14-(4-Amino-butyl)-11-(3-amino-propyl)-25-chloro-17-(1H-indol-3-ylmethyl)-16-methyl-22-phenyl-2-thia-4,10,13,16,19-pentaaza-tricyclo[19.4.0.0*3,8*]pentacosa-1(25),3(8),4,6,21,23-hexaene-12,15,18-trione]

Reference: patent US10030047B2 (Hoffmann-La Roche Inc., priority 2015, dated 2018)
